Experimental data: US20050282755A1, “Compositions having antimicrobial activity and uses thereof” (priority 2004, published 2005)
Values after ≈ are worked out from the molar mass of the structure shown. Non-standard residues stand in square brackets, D forms with d. Residues, ends and D or L forms follow the SMILES beside them. *: point of attachment. Lauroyl = CCCCCCCCCCCC(=O)*

Legend:
Assay type in all cases: cell-based
[1] = test system: Staphylococcus aureus ATCC 29213; test: MIC, NCCLS M7-A6 broth microdilution, cation-adjusted Mueller Hinton broth (Table 9, no superscript); details: ATCC 29213
In short: (§1)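 Values come from a broth microdilution assay run in cation-adjusted Mueller Hinton broth with an inoculum of 5×10^5 to 1×10^6 CFU/milliliter, incubated overnight at 37° C and read as absence of visible turbidity.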

Salmonella dublin (Lane) = test: MIC, NCCLS M7-A6 broth microdilution (Table 9, no superscript)
In short: as §1

[2] = test system: Propionibacterium acnes ATCC 6919; test: MIC, agar dilution method NCCLS M11-A6, Brucella agar, anaerobic (Table 9, superscript c); details: ATCC 6919
Method: A bacterial suspension was prepared to allow for a final inoculum on the plate of 1.5×10^8 CFU/milliliter. After the suspension absorbed into the agar surface, the plates were incubated for 48-96 hours at 37° C. in a GasPak anaerobic chamber. The lowest concentration of peptide that contained no colony growth on the agar plate was determined as the MIC. MIC values that utilized this method of MIC determination are indicated in Table 9 with a superscript letter “c.”

[3] = test system: Candida albicans ATCC 18804; test: MIC in yeasts, NCCLS M27-A2 broth microdilution, RPMI 1640 (Table 9, letter e); details: ATCC 18804
In short: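 Broth microdilution per NCCLS M27-A2 in RPMI 1640 with glutamine and phenol red, final inoculum 0.5×10^3–2.5×10^3 CFU/milliliter. Incubated 24 to 48 hours at 37° C; MIC is the lowest peptide concentration with no visible growth.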

[4] = test system: Escherichia coli ATCC 25922; test: MIC, NCCLS M7-A6 broth microdilution (Table 9, no superscript); details: ATCC 25922
In short: as §1

[5] = test system: Pseudomonas aeruginosa ATCC 27853; test: as above; details: ATCC 27853
In short: as §1

[6] = test system: Staphylococcus epidermidis ATCC 12228; test: as above; details: ATCC 12228
In short: as §1

| MIC S. aureus [1] [µg/mL] | MIC S. dublin (Salmonella dublin (Lane)) [µg/mL] | MIC P. acnes [2] [c ug/mL] | MIC C. albicans [3] [e ug/mL] | MIC E. coli [4] [µg/mL] | MIC P. aeruginosa [5] [µg/mL] | MIC S. epidermidis [6] [µg/mL] | SMILES |
| --- | --- | --- | --- | --- | --- | --- | --- |
| 16 (≈ 3.86 µM) | 32 (≈ 7.72 µM) | >64 | >64 |  |  |  | CSCC[C@H](NC(=O)[C@H](Cc1ccccc1)NC(=O)[C@H](CC(N)=O)NC(=O)[C@H](CCCNC(=N)N)NC(=O)[C@H](CO)NC(=O)[C@H](Cc1c[nH]c2ccccc12)NC(=O)[C@H](CC(=O)O)NC(=O)[C@H](CCCNC(=N)N)NC(=O)[C@H](Cc1c[nH]c2ccccc12)NC(=O)[C@H](CCCNC(=N)N)NC(=O)[C@H](CO)NC(=O)[C@H](CCCNC(=N)N)NC(=O)CNC(=O)[C@@H](NC(=O)[C@H](CCCNC(=N)N)NC(=O)[C@H](CO)NC(=O)[C@@H](NC(=O)[C@H](CCCNC(=N)N)NC(=O)[C@@H](NC(=O)[C@H](C)NC(=O)[C@H](C)NC(=O)[C@H](CCCNC(=N)N)NC(=O)[C@H](CCCNC(=N)N)NC(=O)[C@H](CCCNC(=N)N)NC(=O)[C@@H](N)CCCNC(=N)N)[C@@H](C)O)C(C)C)[C@@H](C)O)C(=O)N[C@@H](CCCNC(=N)N)C(=O)N[C@@H](C)C(=O)N[C@@H](C)C(=O)N[C@@H](CCCNC(=N)N)C(=O)N[C@@H](CCCNC(=N)N)C(=O)N[C@@H](CCCNC(=N)N)C(=O)N[C@@H](CCCNC(=N)N)C(N)=O [Peptide 12] (H-RRRRAATRVSRTGRSRWRDWSRNFMRAARRRR-NH2) |
| 8 (≈ 2.9 µM) | 32 (≈ 11.6 µM) | 64 | 8 | 4 (≈ 1.45 µM) | 8 (≈ 2.9 µM) | 1 (≈ 0.362 µM) | CCCCCCCCCCCC(=O)N[C@H](C(=O)N[C@@H](CCCNC(=N)N)C(=O)N[C@H](C(=O)N[C@@H](C)C(=O)N[C@@H](CCCNC(=N)N)C(=O)N[C@H](C(=O)NCC(=O)N[C@@H](CCCNC(=N)N)C(=O)N[C@@H](CO)C(=O)N[C@@H](CCCNC(=N)N)C(=O)N[C@@H](Cc1c[nH]c2ccccc12)C(=O)N[C@@H](CCCNC(=N)N)C(=O)N[C@@H](CC(=O)O)C(=O)N[C@@H](Cc1c[nH]c2ccccc12)C(=O)N[C@@H](C)C(=O)N[C@@H](CCCNC(=N)N)C(=O)N[C@@H](CC(N)=O)C(=O)N[C@@H](Cc1ccccc1)C(=O)N[C@@H](CCSC)C(=O)N[C@@H](CCCNC(=N)N)C(N)=O)[C@@H](C)O)C(C)C)[C@@H](C)O [Peptide 70] (Lauroyl-TRVARTGRSRWRDWARNFMR-NH2) |
| 4 (≈ 1.97 µM) | 8 (≈ 3.93 µM) | >64 | 16 |  |  |  | CCCCCCCCCCCC(=O)N[C@@H](CCCNC(=N)N)C(=O)N[C@@H](CO)C(=O)N[C@@H](CCCNC(=N)N)C(=O)N[C@@H](Cc1c[nH]c2ccccc12)C(=O)N[C@@H](CCCNC(=N)N)C(=O)N[C@@H](CC(=O)O)C(=O)N[C@@H](Cc1c[nH]c2ccccc12)C(=O)N[C@@H](CO)C(=O)N[C@@H](CCCNC(=N)N)C(=O)N[C@@H](CC(N)=O)C(=O)N[C@@H](Cc1ccccc1)C(=O)N[C@@H](CCSC)C(=O)N[C@@H](CCCNC(=N)N)C(N)=O [Peptide 87, Lauryl-RSRWRDWSRNFMR-NH2] (Lauroyl-RSRWRDWSRNFMR-NH2) |
| 8 (≈ 4.28 µM) | 16 (≈ 8.55 µM) | 32 |  | 16 (≈ 8.55 µM) | >64 | 4 (≈ 2.14 µM) | CCCCCCCCCCCC(=O)N[C@H](CCCNC(=N)N)C(=O)N[C@H](CO)C(=O)N[C@H](CCCNC(=N)N)C(=O)N[C@H](Cc1c[nH]c2ccccc12)C(=O)N[C@H](CCCNC(=N)N)C(=O)N[C@H](CC(=O)O)C(=O)N[C@@H](C(=O)N[C@H](C)C(=O)N[C@H](CCCNC(=N)N)C(=O)N[C@H](C)C(=O)N[C@H](Cc1ccccc1)C(=O)N[C@H](CC(C)C)C(=O)N[C@H](CCCNC(=N)N)C(N)=O)C(C)C [Peptide 226, Lauryl-rsrwrdvaraflr-NH2] (Lauroyl-[dR][dS][dR][dW][dR][dD][dV][dA][dR][dA][dF][dL][dR]-NH2) |
| 32 (≈ 16.4 µM) | 32 (≈ 16.4 µM) | >64 |  | 64 (≈ 32.8 µM) | >64 | 32 (≈ 16.4 µM) | CCCCCCCCCCCC(=O)N[C@H](CCCNC(=N)N)C(=O)N[C@H](CC(C)C)C(=O)N[C@H](CCCNC(=N)N)C(=O)N[C@H](Cc1c[nH]c2ccccc12)C(=O)N[C@H](CCCNC(=N)N)C(=O)N[C@H](CCC(=O)O)C(=O)N[C@@H](C(=O)N[C@H](C)C(=O)N[C@H](CCCNC(=N)N)C(=O)N[C@H](CC(C)C)C(=O)N[C@H](Cc1ccccc1)C(=O)N[C@H](CC(C)C)C(=O)N[C@H](CCCNC(=N)N)C(N)=O)C(C)C [Peptide 227, Lauryl-rlrwrevarlflr-NH2] (Lauroyl-[dR][dL][dR][dW][dR][dE][dV][dA][dR][dL][dF][dL][dR]-NH2) |
| 16 (≈ 8.34 µM) | >64 | 16 |  | 16 (≈ 8.34 µM) | 64 (≈ 33.3 µM) | 16 (≈ 8.34 µM) | CCCCCCCCCCCC(=O)N[C@H](CCCNC(=N)N)C(=O)N[C@H](CO)C(=O)N[C@H](CCCNC(=N)N)C(=O)N[C@H](Cc1c[nH]c2ccccc12)C(=O)N[C@H](CCCNC(=N)N)C(=O)N[C@H](CC(=O)O)C(=O)N[C@H](CO)C(=O)N[C@H](C)C(=O)N[C@H](CCCNC(=N)N)C(=O)N[C@H](CC(N)=O)C(=O)N[C@H](Cc1ccccc1)C(=O)N[C@H](CCSC)C(=O)N[C@H](CCCNC(=N)N)C(N)=O [Peptide 233, Lauryl-rsrwrdsarnfmr-NH2] (Lauroyl-[dR][dS][dR][dW][dR][dD][dS][dA][dR][dN][dF][dM][dR]-NH2) |
| 4 (≈ 3.47 µM) | 16 (≈ 13.9 µM) | 64 |  | 32 (≈ 27.7 µM) | 32 (≈ 27.7 µM) | 8 (≈ 6.94 µM) | CCCCCCCCCCCC(=O)N[C@@H](CCCNC(=N)N)C(=O)N[C@@H](Cc1c[nH]c2ccccc12)C(=O)N[C@@H](CCCNC(=N)N)C(=O)N[C@@H](CC(=O)O)C(=O)N[C@@H](CC(C)C)C(=O)N[C@@H](C)C(=O)N[C@@H](CCCNC(=N)N)C(N)=O [Peptide 241, Lauryl-RWRDLAR-NH2] (Lauroyl-RWRDLAR-NH2) |
| 2 (≈ 1.8 µM) | 32 (≈ 28.8 µM) | 64 |  | 16 (≈ 14.4 µM) | 8 (≈ 7.21 µM) | 2 (≈ 1.8 µM) | CCCCCCCCCCCC(=O)N[C@@H](CCCNC(=N)N)C(=O)N[C@@H](Cc1c[nH]c2ccccc12)C(=O)N[C@@H](CCCNC(=N)N)C(=O)N[C@@H](C)C(=O)N[C@@H](CC(C)C)C(=O)N[C@@H](C)C(=O)N[C@@H](CCCNC(=N)N)C(N)=O [Peptide 242, Lauryl-RWRALAR-NH2] (Lauroyl-RWRALAR-NH2) |
| 4 (≈ 3.65 µM) | >64 | >64 |  | 32 (≈ 29.2 µM) | >64 | 2 (≈ 1.83 µM) | CCCCCCCCCCCC(=O)N[C@@H](CCCNC(=N)N)C(=O)N[C@@H](Cc1c[nH]c2ccccc12)C(=O)N[C@@H](CCCNC(=N)N)C(=O)N[C@@H](C)C(=O)N[C@H](C(=O)N[C@@H](C)C(=O)N[C@@H](CCCNC(=N)N)C(N)=O)C(C)C [Peptide 243, Lauryl-RWRAVAR-NH2] (Lauroyl-RWRAVAR-NH2) |
| 1 (≈ 0.901 µM) | 16 (≈ 14.4 µM) | 8 |  | 8 (≈ 7.21 µM) | 8 (≈ 7.21 µM) | 2 (≈ 1.8 µM) | CCCCCCCCCCCC(=O)N[C@H](CCCNC(=N)N)C(=O)N[C@H](Cc1c[nH]c2ccccc12)C(=O)N[C@H](CCCNC(=N)N)C(=O)N[C@H](C)C(=O)N[C@H](CC(C)C)C(=O)N[C@H](C)C(=O)N[C@H](CCCNC(=N)N)C(N)=O [Peptide 245, Lauryl-rwralar-NH2] (Lauroyl-[dR][dW][dR][dA][dL][dA][dR]-NH2) |
| 4 (≈ 3.65 µM) | >64 | 32 |  | 32 (≈ 29.2 µM) | >64 | 2 (≈ 1.83 µM) | CCCCCCCCCCCC(=O)N[C@H](CCCNC(=N)N)C(=O)N[C@H](Cc1c[nH]c2ccccc12)C(=O)N[C@H](CCCNC(=N)N)C(=O)N[C@H](C)C(=O)N[C@@H](C(=O)N[C@H](C)C(=O)N[C@H](CCCNC(=N)N)C(N)=O)C(C)C [Peptide 246, Lauryl-rwravar-NH2] (Lauroyl-[dR][dW][dR][dA][dV][dA][dR]-NH2) |
